Assay results published in patent US20110182992A1, “PEPTIDES AND PEPTIDE MIMETICS TO TREAT PATHOLOGIES ASSOCIATED WITH EYE DISEASE” (priority 2008, published 2011).

Key:
[1] = system: ApoE null mice; test: Trabecular bone mineral density, peptide in drinking water; type: in vivo, mouse; conditions: drinking water for 6 weeks
[2] = system: ApoE null mice; test: Protection against LDL-induced monocyte chemotactic activity by HDL from apo E null mice given oral peptides; type: in vivo, mouse; conditions: ApoE null mice, peptide in drinking water 24 hrs; murine HDL at 100 μg/ml
Text: FIG. 4 illustrates protection against LDL-induced monocyte chemotactic activity by HDL from apo E null mice given oral peptides. The values are the mean±SD of the number of migrated monocytes in 9 high power fields from each of quadruple assay wells. Asterisks indicate significant difference (p<0.05) as compared to No Peptide mHDL.
After 24 hrs blood was collected, plasma fractionated by FPLC and fractions containing LDL (designated as mLDL for murine LDL) and fractions containing HDL (designated as mHDL) were separately pooled and HDL protective capacity against LDL oxidation as determined by LDL-induced monocyte chemotactic activity was determined. For the assay controls the culture wells received no lipoproteins (no additions), mLDL alone (at 200 μg cholesterol/ml), or mLDL+ standard normal human HDL (designated as Cont. h HDL, at 350 μg HDL cholesterol/ml).
For testing the murine HDL, mLDL together with murine HDL (+F mHDL or +J mHDL) were added to artery wall cell cultures. […] The murine HDL was used at 100µg cholesterol/ml.

[3] = system: Obese Zucker rats; test: Plasma glucose and lipid hydroperoxides (LOOH) in obese Zucker rats; type: in vivo, rat; conditions: Obese Zucker rats 26 weeks of age, 5.0 mg/kg/day intraperitoneal, 10 days
Procedure: Obese Zucker rats 26 weeks of age were bled and then treated with daily intraperitoneal injections of D-4F (5.0 mg/kg/day). After 10 days the rats were bled again plasma glucose and lipid hydroperoxides (LOOH) were determined. *p=0.027; **p=0.0017.

[4] = in vivo; cited from earlier work
[5] = system: LDL receptor null mice; test: HDL protective capacity in LDL receptor null mice given peptide in drinking water; type: in vivo; conditions: 0.25 or 0.5 mg per ml of drinking water, 24 or 48 hrs, mouse HDL at 100 μg/ml
Procedure: FIG. 3 illustrates the effect of apo J peptide mimetics on HDL protective capacity in LDL receptor null mice. The values are the mean±SD of the number of migrated monocytes in 9 high power fields from each of quadruple assay wells.
D-4F designated as F, or the apoJ peptide made from D amino acids (D-J336, designated as J) was added to the drinking water of LDL receptor null mice (4 per group) at 0.25 or 0.5 mg per ml of drinking water. After 24- or 48-hrs blood was collected from the mice and their HDL was isolated and tested for its ability to protect against LDL-induced monocyte chemotactic activity. Assay controls included culture wells that received no lipoproteins (no addition), or control human LDL alone (designated as LDL, 200µg cholesterol/ml), or control LDL+ control human HDL (designated as +HDL, 350µg HDL cholesterol). For testing the mouse HDL, the control LDL was added together with mouse HDL (+F HDL or +J HDL) to artery wall cell cultures. The mouse HDL was added at 100 μg cholesterol/ml respectively.

[6] = system: ApoE null mice; test: HDL function after D-4F and/or statin in the drinking water; type: in vivo, mouse; conditions: 1 μg/ml in the drinking water for 24 hours
[7] = mouse, in vivo
[8] = system: ApoE null mice; test: HDL Inflammatory Index, D-4F versus Reverse D-4F by stomach tube; type: in vivo, mouse; conditions: apoE null mice, 0, 3, 6, 12 or 25 micrograms by stomach tube, blood 7 hours later
Procedure: Female apoE null mice were administered by stomach tube 0, 3, 6, 12, or 25 micrograms of D-4F or Reverse D-4F in 100 microliters of water. Blood was obtained 7 hours later and the plasma was fractionated by FPLC. A standard control human LDL was added to human artery wall cells at a concentration of 100 micrograms of LDL-cholesterol/mL (LDL). The resulting monocyte chemotactic activity was normalized to 1.0. […] The resulting monocyte chemotactic activity was normalized to that of the LDL added without HDL. The resulting value is the HDL Inflammatory Index. The results shown are the Mean±S.D. for the data from three separate experiments.

[9] = system: ApoE null mice; test: HDL and pre-beta HDL from apoE null mice fed solution-phase synthesized D-4F: inhibition of LDL-induced monocyte chemotaxis; type: in vivo, mouse; conditions: ApoE null mice fed 5 micrograms in chow, bled after twelve hours; product of solution phase synthesis
Text: ApoE null mice were fed 5 micrograms of the D-4F synthesized as described above (Frgmnt) or the mice were given the same amount of mouse chow without D-4F (Chow). Twelve hours after the feeding was started, the mice were bled and their plasma was fractionated on FPLC.

In the case of `CC(=O)N[C@H](CC(=O)O)C(=O)N[C@H](Cc1c[nH]c2ccccc12)C(=O)N[C@H](Cc1ccccc1)C(=O)N[C@H](CCCCN)C(=O)N[C@H](C)C(=O)N[C@H](Cc1ccccc1)C(=O)N[C@H](Cc1ccc(O)cc1)C(=O)N[C@H](CC(=O)O)C(=O)N[C@H](CCCCN)C(=O)N[C@@H](C(=O)N[C@H](C)C(=O)N[C@H](CCC(=O)O)C(=O)N[C@H](CCCCN)C(=O)N[C@H](Cc1ccccc1)C(=O)N[C@H](CCCCN)C(=O)N[C@H](CCC(=O)O)C(=O)N[C@H](C)C(=O)N[C@H](Cc1ccccc1)C(N)=O)C(C)C` [Peptide D-4F, Ac-D-W-F-K-A-F-Y-D-K-V-A-E-K-F-K-E-A-F-NH2], the “trabecular bone mineral density” value [1] is reported as “dramatically increased trabecular bone mineral density”, the “activity of murine HDL against LDL-induced monocyte chemotactic activity” value [2] is reported as “as active as 350µg/ml of normal human HDL” and the “mitigation of symptoms of diabetes (plasma glucose, lipid hydroperoxides)” value [3] is reported as “effective in mitigating symptoms of diabetes”. The side effects [4] was “no side effects”, the “activity of mouse HDL in preventing control LDL from inducing artery wall cells to produce monocyte chemotactic activity” value [5] was “as active as 350 μg/ml of control human HDL” and the “HDL function, D-4F alone” value [6] was “did not significantly improve HDL function”. The “association with pre-beta HDL and HDL” value [7] was “rapidly associates with pre-beta HDL and HDL”, the “time after an oral dose at which essentially non-detectable in the circulation” value ([7]; po) was 6 h and the “biological activities (HDL Inflammatory Index), D-4F versus Reverse D-4F” value [8] was “not significantly different”. The “biological activity in producing HDL and pre-beta HDL that inhibit LDL-induced monocyte chemotaxis” value [9] was “very biologically active in producing HDL and pre-beta HDL that inhibit LDL-induced monocyte chemotaxis”.
